According to the supplement of paper PMC6411743:

Compound: Nc1ncnc2c1ncn2[C@@H]1O[C@H](COP(=O)(O)OP(=O)(O)OP(=O)(O)O)[C@@H](O)[C@H]1O [adenosine triphosphate]
Assay: pEC50 of ATP-induced change in protein thermal stability (2D-TPP)
Method in brief: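 Soluble protein was quantified by TMT LC-MS/MS after ultracentrifugation of Jurkat crude lysate that had been dosed at five concentrations including vehicle (10 min, room temperature), heated at 12 temperatures of 42–63.9 °C for 3 min, and incubated with NP40 and benzonase at 4 °C for 60 min. Fold changes against vehicle at each temperature were median-normalised, and pEC50 was derived from per-replicate dose-response fits over adjacent temperature pairs. Hits were called with permutation-based false discovery rate control in three independent experiments.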
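Further: lysate dosed with Na-ATP at 0 0.005 0.05 0.5 and 2 mM.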

Sequence of UniProt Q9H0B6 (Q9H0B6 whole entry): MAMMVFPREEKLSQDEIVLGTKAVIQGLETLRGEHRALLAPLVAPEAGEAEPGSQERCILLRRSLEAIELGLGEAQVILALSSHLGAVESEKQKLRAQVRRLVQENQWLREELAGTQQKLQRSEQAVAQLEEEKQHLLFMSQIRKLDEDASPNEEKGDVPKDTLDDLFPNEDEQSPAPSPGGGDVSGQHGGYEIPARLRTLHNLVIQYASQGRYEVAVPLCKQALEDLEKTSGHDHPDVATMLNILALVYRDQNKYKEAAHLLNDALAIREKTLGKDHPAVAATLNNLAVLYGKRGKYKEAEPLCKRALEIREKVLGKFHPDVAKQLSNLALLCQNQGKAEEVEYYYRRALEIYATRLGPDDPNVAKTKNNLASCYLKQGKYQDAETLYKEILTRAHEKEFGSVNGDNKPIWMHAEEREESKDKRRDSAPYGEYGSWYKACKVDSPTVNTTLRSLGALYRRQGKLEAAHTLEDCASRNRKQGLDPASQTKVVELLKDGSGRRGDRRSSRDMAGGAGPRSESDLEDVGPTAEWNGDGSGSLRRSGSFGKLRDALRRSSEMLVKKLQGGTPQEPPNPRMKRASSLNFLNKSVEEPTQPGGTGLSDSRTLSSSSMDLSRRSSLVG
Sequence of UniProt P00558 (P00558 whole entry): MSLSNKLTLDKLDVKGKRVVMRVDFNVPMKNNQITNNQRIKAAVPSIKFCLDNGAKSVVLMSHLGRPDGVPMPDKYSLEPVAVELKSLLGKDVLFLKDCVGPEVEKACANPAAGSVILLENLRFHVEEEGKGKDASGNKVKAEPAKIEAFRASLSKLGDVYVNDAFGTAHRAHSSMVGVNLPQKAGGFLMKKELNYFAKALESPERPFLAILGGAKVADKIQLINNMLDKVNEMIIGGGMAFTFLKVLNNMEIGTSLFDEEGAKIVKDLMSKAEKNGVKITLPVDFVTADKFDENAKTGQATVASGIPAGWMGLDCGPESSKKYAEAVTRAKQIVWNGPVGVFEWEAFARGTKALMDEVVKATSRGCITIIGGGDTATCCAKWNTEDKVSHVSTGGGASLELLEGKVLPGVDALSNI
Sequence of UniProt Q15398 (Q15398 whole entry): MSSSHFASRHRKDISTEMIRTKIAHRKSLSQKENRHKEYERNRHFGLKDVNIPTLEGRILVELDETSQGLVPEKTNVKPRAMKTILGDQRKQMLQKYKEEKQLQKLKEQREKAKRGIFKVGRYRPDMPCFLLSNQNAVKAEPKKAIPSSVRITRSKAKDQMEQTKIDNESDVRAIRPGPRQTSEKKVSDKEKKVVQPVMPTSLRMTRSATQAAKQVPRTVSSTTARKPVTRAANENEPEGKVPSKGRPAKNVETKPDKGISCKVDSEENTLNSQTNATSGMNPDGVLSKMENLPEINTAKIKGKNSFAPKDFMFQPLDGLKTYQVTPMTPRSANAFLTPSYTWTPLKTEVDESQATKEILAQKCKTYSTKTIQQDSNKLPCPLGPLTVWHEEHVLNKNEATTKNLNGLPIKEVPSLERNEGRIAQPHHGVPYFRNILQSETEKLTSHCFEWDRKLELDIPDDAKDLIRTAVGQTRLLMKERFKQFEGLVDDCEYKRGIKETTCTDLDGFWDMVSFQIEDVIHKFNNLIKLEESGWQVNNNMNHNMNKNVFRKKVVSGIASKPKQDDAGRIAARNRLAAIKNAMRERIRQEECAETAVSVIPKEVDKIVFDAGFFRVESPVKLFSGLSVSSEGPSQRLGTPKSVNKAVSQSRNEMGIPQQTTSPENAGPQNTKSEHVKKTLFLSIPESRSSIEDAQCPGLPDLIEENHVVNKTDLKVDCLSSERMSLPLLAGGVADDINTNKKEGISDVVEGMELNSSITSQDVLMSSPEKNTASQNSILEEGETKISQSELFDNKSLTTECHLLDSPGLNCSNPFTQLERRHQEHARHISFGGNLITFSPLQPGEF
Sequence of UniProt Q9Y2H1 (Q9Y2H1 whole entry, looked up): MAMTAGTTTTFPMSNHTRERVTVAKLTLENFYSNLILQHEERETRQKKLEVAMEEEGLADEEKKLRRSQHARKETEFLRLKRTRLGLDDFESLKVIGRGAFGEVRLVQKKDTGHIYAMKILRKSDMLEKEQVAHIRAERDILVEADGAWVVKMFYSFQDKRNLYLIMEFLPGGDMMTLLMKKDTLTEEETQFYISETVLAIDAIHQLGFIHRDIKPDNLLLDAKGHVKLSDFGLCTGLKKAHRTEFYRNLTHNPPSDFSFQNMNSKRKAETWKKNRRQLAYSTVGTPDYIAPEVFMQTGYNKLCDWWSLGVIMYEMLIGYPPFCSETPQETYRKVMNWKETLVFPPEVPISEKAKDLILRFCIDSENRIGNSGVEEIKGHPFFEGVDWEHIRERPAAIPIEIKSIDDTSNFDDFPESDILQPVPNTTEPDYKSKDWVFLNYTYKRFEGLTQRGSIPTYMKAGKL
Sequence of UniProt Q96C86 (Q96C86 whole entry): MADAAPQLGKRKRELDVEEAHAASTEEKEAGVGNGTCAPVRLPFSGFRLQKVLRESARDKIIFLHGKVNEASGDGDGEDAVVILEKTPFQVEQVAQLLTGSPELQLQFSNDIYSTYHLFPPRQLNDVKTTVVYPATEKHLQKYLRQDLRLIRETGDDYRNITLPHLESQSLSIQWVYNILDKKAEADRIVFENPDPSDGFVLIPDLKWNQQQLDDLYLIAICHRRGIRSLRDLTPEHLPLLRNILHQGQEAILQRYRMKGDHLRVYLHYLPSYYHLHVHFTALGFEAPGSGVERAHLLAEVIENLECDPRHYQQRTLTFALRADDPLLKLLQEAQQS
Sequence of UniProt O43252 (O43252 whole entry): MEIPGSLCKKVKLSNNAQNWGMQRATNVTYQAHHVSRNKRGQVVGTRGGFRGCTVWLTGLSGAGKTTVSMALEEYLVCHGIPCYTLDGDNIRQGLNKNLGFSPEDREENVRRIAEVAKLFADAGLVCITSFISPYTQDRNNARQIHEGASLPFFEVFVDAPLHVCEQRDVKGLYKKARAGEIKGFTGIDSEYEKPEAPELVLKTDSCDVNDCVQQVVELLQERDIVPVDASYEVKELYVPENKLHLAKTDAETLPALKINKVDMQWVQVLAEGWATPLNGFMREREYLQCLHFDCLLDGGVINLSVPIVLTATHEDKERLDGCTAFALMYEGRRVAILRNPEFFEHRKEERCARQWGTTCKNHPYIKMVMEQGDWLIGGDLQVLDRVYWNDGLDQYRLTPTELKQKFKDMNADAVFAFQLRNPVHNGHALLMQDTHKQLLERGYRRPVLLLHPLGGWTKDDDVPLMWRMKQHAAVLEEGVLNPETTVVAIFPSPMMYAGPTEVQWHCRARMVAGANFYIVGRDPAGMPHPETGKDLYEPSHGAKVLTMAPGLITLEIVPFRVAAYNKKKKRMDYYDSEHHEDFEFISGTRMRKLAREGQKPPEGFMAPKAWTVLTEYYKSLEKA
Sequence of UniProt Q93084 (Q93084 whole entry): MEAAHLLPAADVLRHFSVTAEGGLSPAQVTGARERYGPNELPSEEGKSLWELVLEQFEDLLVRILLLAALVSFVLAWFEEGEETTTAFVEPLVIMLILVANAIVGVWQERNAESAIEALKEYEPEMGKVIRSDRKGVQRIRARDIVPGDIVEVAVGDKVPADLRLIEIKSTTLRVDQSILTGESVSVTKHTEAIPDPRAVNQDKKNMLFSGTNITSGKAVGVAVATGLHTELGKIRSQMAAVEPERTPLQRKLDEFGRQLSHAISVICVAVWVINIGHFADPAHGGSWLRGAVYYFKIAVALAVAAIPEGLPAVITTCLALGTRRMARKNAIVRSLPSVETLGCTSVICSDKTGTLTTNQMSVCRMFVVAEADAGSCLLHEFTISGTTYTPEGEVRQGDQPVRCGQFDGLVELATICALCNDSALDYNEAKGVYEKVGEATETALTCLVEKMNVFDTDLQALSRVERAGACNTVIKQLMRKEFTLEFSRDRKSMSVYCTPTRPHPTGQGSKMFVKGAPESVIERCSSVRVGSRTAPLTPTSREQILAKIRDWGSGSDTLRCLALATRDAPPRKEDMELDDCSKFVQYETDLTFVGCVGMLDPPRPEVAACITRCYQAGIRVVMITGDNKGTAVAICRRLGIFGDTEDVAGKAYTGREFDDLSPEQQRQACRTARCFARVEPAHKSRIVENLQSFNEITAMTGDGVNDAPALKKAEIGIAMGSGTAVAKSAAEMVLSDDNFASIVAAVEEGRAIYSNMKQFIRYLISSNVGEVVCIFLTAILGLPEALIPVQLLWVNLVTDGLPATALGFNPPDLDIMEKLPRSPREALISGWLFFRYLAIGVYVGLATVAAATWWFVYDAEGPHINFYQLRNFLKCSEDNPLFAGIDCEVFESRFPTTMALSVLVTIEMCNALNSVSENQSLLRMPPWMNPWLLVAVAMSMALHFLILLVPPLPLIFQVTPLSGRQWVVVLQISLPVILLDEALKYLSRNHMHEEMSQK
Sequence of UniProt Q9H6F5 (Q9H6F5 whole entry): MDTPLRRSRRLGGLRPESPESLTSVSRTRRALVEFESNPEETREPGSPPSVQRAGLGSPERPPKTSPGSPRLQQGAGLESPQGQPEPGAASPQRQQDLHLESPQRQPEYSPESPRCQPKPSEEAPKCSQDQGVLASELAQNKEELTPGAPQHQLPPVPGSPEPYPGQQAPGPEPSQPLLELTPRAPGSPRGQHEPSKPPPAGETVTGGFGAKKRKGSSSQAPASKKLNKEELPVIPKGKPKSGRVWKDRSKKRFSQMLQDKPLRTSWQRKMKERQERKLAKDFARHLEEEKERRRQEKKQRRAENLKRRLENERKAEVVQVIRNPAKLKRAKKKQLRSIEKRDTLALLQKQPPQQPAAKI
Sequence of UniProt Q9Y530 (Q9Y530 whole entry): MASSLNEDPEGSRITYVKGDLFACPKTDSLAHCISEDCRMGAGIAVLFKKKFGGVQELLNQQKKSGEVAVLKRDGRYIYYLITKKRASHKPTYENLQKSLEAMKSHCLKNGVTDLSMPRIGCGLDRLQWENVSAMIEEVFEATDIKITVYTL
Sequence of UniProt P07737 (P07737 whole entry): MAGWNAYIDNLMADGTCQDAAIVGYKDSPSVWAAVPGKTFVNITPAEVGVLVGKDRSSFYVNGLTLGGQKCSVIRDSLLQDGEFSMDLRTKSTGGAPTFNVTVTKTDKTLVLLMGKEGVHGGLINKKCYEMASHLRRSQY

Target	pEC50
KIF3B (effect direction: stabilized) (UniProt O15066)	4.07
GTF2I (effect direction: stabilized) (UniProt P78347)	3.28
SLBP (effect direction: stabilized) (UniProt Q14493)	3.47
ALDH18A1 (effect direction: stabilized) (UniProt P54886)	3.12
SNRPA1 (effect direction: stabilized) (UniProt P09661)	< 2.7
ATP11B (effect direction: stabilized) (UniProt Q9Y2G3)	4.15
STXBP2 (effect direction: stabilized) (UniProt Q15833)	< 2.7
HLTF (effect direction: stabilized) (UniProt Q14527)	4.11
PHKA1 (effect direction: stabilized) (UniProt P46020)	2.87
CEBPZ (effect direction: destabilized) (UniProt Q03701)	3.06
PSMC2 (effect direction: stabilized) (UniProt P35998)	4.28
SARNP (effect direction: destabilized) (UniProt P82979)	3.18
ANXA6 (effect direction: stabilized) (UniProt P08133)	< 2.7
TUBA1C (effect direction: stabilized) (UniProt Q9BQE3)	3.5
CAPNS1 (effect direction: stabilized) (UniProt P04632)	2.86
SF3A3 (effect direction: stabilized) (UniProt Q12874)	< 2.7
GPS1 (effect direction: stabilized) (UniProt Q13098)	< 2.7
TSTA3 (effect direction: stabilized) (UniProt Q13630)	2.73
UniProt O75521 (effect direction: stabilized)	< 2.7
RPL17 (effect direction: destabilized) (UniProt P18621)	3.27
ATP2A3 (effect direction: stabilized) (UniProt Q93084)	3.22
DECR1 (effect direction: stabilized) (UniProt Q16698)	< 2.7
DUSP12 (effect direction: stabilized) (UniProt Q9UNI6)	< 2.7

Target	pEC50
CTSA (effect direction: stabilized) (UniProt P10619)	3.12
UniProt Q15418 (effect direction: stabilized)	3.77
CPSF2 (effect direction: stabilized) (UniProt Q9P2I0)	< 2.7
HEXA (effect direction: stabilized) (UniProt P06865)	3.22
XRCC5 (effect direction: stabilized) (UniProt P13010)	< 2.7
PTAR1 (effect direction: stabilized) (UniProt Q7Z6K3)	< 2.7
KRI1 (effect direction: destabilized) (UniProt Q8N9T8)	2.81
LRWD1 (effect direction: stabilized) (UniProt Q9UFC0)	3.85
LARS2 (effect direction: stabilized) (UniProt Q15031)	3.59
RIOK1 (effect direction: stabilized) (UniProt Q9BRS2)	3.11
TRAP1 (effect direction: stabilized) (UniProt Q12931)	3.33
TUT1 (effect direction: stabilized) (UniProt Q9H6E5)	2.93
H1FX (effect direction: destabilized) (UniProt Q92522)	< 2.7
CTSD (effect direction: stabilized) (UniProt P07339)	3.11
NUP133 (effect direction: stabilized) (UniProt Q8WUM0)	2.84
UniProt P06493 (effect direction: stabilized)	2.93
ISG15 (effect direction: stabilized) (UniProt P05161)	2.74
GRAP (effect direction: stabilized) (UniProt Q13588)	3.54
UniProt Q9Y2H1 (effect direction: stabilized)	3.71
PFN1 (effect direction: stabilized) (UniProt P07737)	3.57
UniProt Q9Y530 (effect direction: stabilized)	2.97
WDR33 (effect direction: stabilized) (UniProt Q9C0J8)	< 2.7
UniProt Q92888 (effect direction: stabilized)	< 2.7

Target	pEC50
KLC2 (effect direction: stabilized) (UniProt Q9H0B6)	4.06
DCPS (effect direction: stabilized) (UniProt Q96C86)	< 2.7
UniProt Q00537 (effect direction: stabilized)	2.73
ADRM1 (effect direction: stabilized) (UniProt Q16186)	4.04
ARG2 (effect direction: destabilized) (UniProt P78540)	3.17
SLC27A4 (effect direction: stabilized) (UniProt Q6P1M0)	3.05
IPO9 (effect direction: destabilized) (UniProt Q96P70)	3.67
UniProt Q12905 (effect direction: stabilized)	2.84
RFX1 (effect direction: stabilized) (UniProt P22670)	< 2.7
LARP1 (effect direction: stabilized) (UniProt Q6PKG0)	< 2.7
RRP15 (effect direction: destabilized) (UniProt Q9Y3B9)	3.51
PTBP1 (effect direction: stabilized) (UniProt P26599)	3.15
UniProt Q14562 (effect direction: stabilized)	3.56
ALDH9A1 (effect direction: stabilized) (UniProt P49189)	2.9
UniProt Q13416 (effect direction: stabilized)	3.4
CCDC86 (effect direction: stabilized) (UniProt Q9H6F5)	< 2.7
SUPV3L1 (effect direction: stabilized) (UniProt Q8IYB8)	3.12
PAPSS1 (effect direction: stabilized) (UniProt O43252)	3.65
ATP2C1 (effect direction: stabilized) (UniProt P98194)	3.66
PPP2CA (effect direction: destabilized) (UniProt P67775)	< 2.7
SNX5 (effect direction: stabilized) (UniProt Q9Y5X3)	< 2.7
PPM1F (effect direction: stabilized) (UniProt P49593)	< 2.7
UniProt P49841 (effect direction: stabilized)	3.37

Target	pEC50
UBE2O (effect direction: stabilized) (UniProt Q9C0C9)	< 2.7
CAPN1 (effect direction: stabilized) (UniProt P07384)	3.17
KIF5B (effect direction: stabilized) (UniProt P33176)	4.09
UniProt O95319 (effect direction: stabilized)	< 2.7
STAG2 (effect direction: stabilized) (UniProt Q8N3U4)	4.09
PPP3CC (effect direction: destabilized) (UniProt P48454)	2.92
MRPS6 (effect direction: destabilized) (UniProt P82932)	3.58
CHORDC1 (effect direction: stabilized) (UniProt Q9UHD1)	< 2.7
GLRX3 (effect direction: stabilized) (UniProt O76003)	< 2.7
PGK1 (effect direction: stabilized) (UniProt P00558)	3.75
MIER1 (effect direction: stabilized) (UniProt Q8N108)	< 2.7
UMPS (effect direction: stabilized) (UniProt P11172)	< 2.7
UniProt P62899 (effect direction: destabilized)	3
NAT14 (effect direction: stabilized) (UniProt Q8WUY8)	3.34
LLPH (effect direction: stabilized) (UniProt Q9BRT6)	< 2.7
POLG2 (effect direction: destabilized) (UniProt Q9UHN1)	3.26
UniProt Q5JUR7 (effect direction: stabilized)	3.36
RAB3GAP2 (effect direction: stabilized) (UniProt Q9H2M9)	5.16
UniProt Q9NYV4 (effect direction: stabilized)	2.75
KLHDC4 (effect direction: stabilized) (UniProt Q8TBB5)	< 2.7
THUMPD3 (effect direction: stabilized) (UniProt Q9BV44)	3.1
DLGAP5 (effect direction: destabilized) (UniProt Q15398)	2.82
GNAS (effect direction: stabilized) (UniProt P63092)	< 2.7
